The target in test [1] is T1, human NK2 receptor (Homo sapiens, UniProt P21452).
T1 construct: expressed in transfected cells; host or cells: human U2OS cells transiently transduced with recombinant BacMam virus
T1 sequence (P21452 1-398): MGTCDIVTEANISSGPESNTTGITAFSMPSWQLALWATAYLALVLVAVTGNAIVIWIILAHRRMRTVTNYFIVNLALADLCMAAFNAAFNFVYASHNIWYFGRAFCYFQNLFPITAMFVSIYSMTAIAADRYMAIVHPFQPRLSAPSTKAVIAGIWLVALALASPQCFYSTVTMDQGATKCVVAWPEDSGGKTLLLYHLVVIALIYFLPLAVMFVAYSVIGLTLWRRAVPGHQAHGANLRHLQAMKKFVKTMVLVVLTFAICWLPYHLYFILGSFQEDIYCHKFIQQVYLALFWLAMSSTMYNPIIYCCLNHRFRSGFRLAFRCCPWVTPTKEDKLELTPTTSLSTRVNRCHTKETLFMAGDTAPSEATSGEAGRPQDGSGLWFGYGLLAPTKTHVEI
Kind of test: NK functional potency, FLIPR calcium release in U2OS cells (NKA as ligand). The class given is cell-based. The conditions noted are these: BacMam human NK2, average of at least two determinations, read-out: NK2 pKi (functional potency, fpKi) (converted). The text has this: Compounds of the invention were further characterised in a functional assay using FLIPR technology for the determination of their effect to inhibit the intracellular calcium release induced by interaction of NK receptors with its perspective ligands. Human U2OS cells transiently transduced with recombinant BacMam virus expressing human NK1, NK2 and NK3 receptors were used in the studies (see J. P. Condreay et al, Proc. Natl. Acad. Sci. USA 1999, 96(1): 127-132). Briefly, U2OS cells were harvested from tissue culture flasks, re-suspended to a cell density of 200-300K/ml and mixed with recombinant BacMam virus carrying NKR gene in a virus/cell ratio of 1% (v/v). 10K-15K cells/well were then seeded in 384-well Greiner bio-one plate in culture medium (DMEM with 10% FBS), incubated overnight in 5% CO2 at 37° C. […] Finally, 10 uL/well of NKR ligands in assay buffer containing 0.1% BSA was added to the cells and fluorescence signal read on a FLIPR system. […] IC50 values of each compound were determined by an 11-point 3×-dilution inhibition curve. The potency each antagonist (fpKi) was calculated from pIC50 by the Cheng-Prusoff equation using EC50 of ligand determined in a separate experiment. […]

The target of test [2] is human NK1 receptor (Homo sapiens, UniProt P25103). Nature of the test: NK functional potency, FLIPR calcium release in U2OS cells (Substance P as ligand). Details: expressed in transfected cells; host or cells: human U2OS cells transiently transduced with recombinant BacMam virus. The conditions noted are these: BacMam human NK1, average of at least two determinations, read-out: NK1 pKi (functional potency, fpKi) (converted). The class given is cell-based. The text has this: Compounds of the invention were further characterised in a functional assay using FLIPR technology for the determination of their effect to inhibit the intracellular calcium release induced by interaction of NK receptors with its perspective ligands. Human U2OS cells transiently transduced with recombinant BacMam virus expressing human NK1, NK2 and NK3 receptors were used in the studies (see J. P. Condreay et al, Proc. Natl. Acad. Sci. USA 1999, 96(1): 127-132). Briefly, U2OS cells were harvested from tissue culture flasks, re-suspended to a cell density of 200-300K/ml and mixed with recombinant BacMam virus carrying NKR gene in a virus/cell ratio of 1% (v/v). 10K-15K cells/well were then seeded in 384-well Greiner bio-one plate in culture medium (DMEM with 10% FBS), incubated overnight in 5% CO2 at 37° C. After aspirating the medium, cells were loaded 18-24 hr later with cytoplasmic calcium indicator Fluo-4 Calcium 3 dye (Molecular Devices Co.) in 30 uL/well buffer (Hank's balanced salts with 20 mM Hepes) and incubated in CO2 at 37° C. for 60 minutes. 10 uL/well assay buffer (Hank's balanced salts with 20 mM Hepes) containing different concentrations of compounds were then added to the cells for 30 minutes incubation at 37° C. Finally, 10 uL/well of NKR ligands in assay buffer containing 0.1% BSA was added to the cells and fluorescence signal read on a FLIPR system. Substance P, NKA and NKB peptides were used as the ligands for NK1, NK2 and NK3 receptor, respectively. IC50 values of each compound were determined by an 11-point 3×-dilution inhibition curve. The potency each antagonist (fpKi) was calculated from pIC50 by the Cheng-Prusoff equation using EC50 of ligand determined in a separate experiment.
The compounds of Example 11, Examples 2, 4 and 6 were tested in the NK functional potency assay.

Where a name gives a salt, the structure may show the parent alone.

Chain of human NK1 receptor (P25103 whole entry): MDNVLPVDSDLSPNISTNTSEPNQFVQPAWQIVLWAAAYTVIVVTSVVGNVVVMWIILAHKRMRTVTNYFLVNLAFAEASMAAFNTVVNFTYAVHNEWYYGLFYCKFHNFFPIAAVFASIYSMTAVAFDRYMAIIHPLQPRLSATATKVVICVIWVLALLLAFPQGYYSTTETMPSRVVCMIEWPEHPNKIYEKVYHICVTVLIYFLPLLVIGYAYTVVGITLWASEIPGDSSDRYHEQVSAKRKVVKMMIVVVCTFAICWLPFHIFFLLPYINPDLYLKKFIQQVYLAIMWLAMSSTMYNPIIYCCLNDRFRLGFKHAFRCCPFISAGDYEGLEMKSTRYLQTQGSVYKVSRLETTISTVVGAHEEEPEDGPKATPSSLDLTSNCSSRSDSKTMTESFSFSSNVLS

In the case of `Cc1cc(F)ccc1-c1cc([C@H]2CC[C@](C)(C(N)=O)N2)ncc1N(C)C(=O)C(C)(C)c1cc(C(F)(F)F)cc(C(F)(F)F)c1` [Example 11, (5R)-5-[5-[{2-[3,5-bis(trifluoromethyl)phenyl]-2-methylpropanoyl}(methyl)amino]-4-(4-fluoro-2-methylphenyl)-2-pyridinyl]-2-methyl-D-prolinamide bis-hydrochloride], the Ki is above 1000 nM in test [1] and 0.0794 nM in test [2].

The values above are taken from patent US20090286836A1, “Novel Compounds” (priority 2008, published 2009).
